Literature values as cited in patent US20030036565A1, “Cancer chemopreventive agents” (WISCONSIN ALUMNI RESEARCH FOUNDATION, priority 2001, published 2003).

Tested on: phase II enzyme synthesis
Conditions: cultured murine hepatoma cells; Wilkinson and Clapper, 1997

Row | SMILES | induction of phase II enzyme synthesis
1 | COc1ccc(O)c(C(C)(C)C)c1 [BHA, butylated hydroxyanisole] | induce phase II enzyme synthesis
2 | Cc1cc(C(C)(C)C)c(O)c(C(C)(C)C)c1 [BHT, butylated hydroxytoluene] | induce phase II enzyme synthesis
3 | CC(C)(C)c1cc(O)ccc1O [TBHQ, tert-butylhydroquinone] | induce phase II enzyme synthesis
4 | O=c1cc(-c2ccccc2)oc2ccc3ccccc3c12 [β-naphthoflavone] | induce phase II enzyme synthesis
